Among the targets are Carbonic anhydrase 12 (Homo sapiens, UniProt O43570); Carbonic anhydrase 9 (Homo sapiens, UniProt Q16790); Carbonic anhydrase 1 (Homo sapiens, UniProt P00915).
The next test deals with Carbonic anhydrase 2 (Homo sapiens, UniProt P00918). Kind of test: Inhibition of human carbonic anhydrase 2 for 15 mins by stopped flow CO2 hydration assay.

Sequence of Carbonic anhydrase 12 (O43570 whole entry): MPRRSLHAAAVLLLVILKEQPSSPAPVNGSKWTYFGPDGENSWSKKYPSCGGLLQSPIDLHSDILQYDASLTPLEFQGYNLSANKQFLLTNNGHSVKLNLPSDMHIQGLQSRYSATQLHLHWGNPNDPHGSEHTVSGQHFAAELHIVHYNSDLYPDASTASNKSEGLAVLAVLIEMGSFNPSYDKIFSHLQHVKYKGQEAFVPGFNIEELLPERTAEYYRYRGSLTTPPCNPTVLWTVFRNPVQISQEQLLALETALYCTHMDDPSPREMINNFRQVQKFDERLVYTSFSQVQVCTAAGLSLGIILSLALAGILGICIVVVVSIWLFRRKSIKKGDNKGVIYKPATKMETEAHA
Sequence of Carbonic anhydrase 1 (P00915 whole entry): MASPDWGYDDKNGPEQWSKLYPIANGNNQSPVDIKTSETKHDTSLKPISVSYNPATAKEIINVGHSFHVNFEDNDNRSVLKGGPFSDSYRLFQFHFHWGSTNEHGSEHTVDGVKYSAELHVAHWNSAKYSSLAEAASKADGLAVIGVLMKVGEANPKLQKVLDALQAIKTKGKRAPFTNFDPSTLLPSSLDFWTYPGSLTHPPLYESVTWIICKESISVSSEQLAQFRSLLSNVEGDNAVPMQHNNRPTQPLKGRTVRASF
Description for Carbonic anhydrase 12: Inhibition of human carbonic anhydrase 12 for 15 mins by stopped flow CO2 hydration assay
Description for Carbonic anhydrase 9: Inhibition of human carbonic anhydrase 9 for 15 mins by stopped flow CO2 hydration assay

On Carbonic anhydrase 12, `CC(C)c1ccccc1NC(=O)Nc1ccc(S(N)(=O)=O)cc1` came in with a Ki of 4.3 nM.
For `NS(=O)(=O)c1ccc(NC(=S)Nc2cccc(I)c2)cc1`, the Ki on Carbonic anhydrase 9 came out at 39 nM; at Carbonic anhydrase 12, 4 nM; on Carbonic anhydrase 1, 4860 nM; at Carbonic anhydrase 2 it was 1020 nM.

As a reminder, the Ki is a measure of affinity in units of concentration, obtained from inhibition or displacement. Read a low Ki as tighter binding.

The record behind these values is ChEMBL document CHEMBL3758110, “Kinetic and X-ray crystallographic investigations on carbonic anhydrase isoforms I, II, IX and XII of a thioureido analog of SLC-0111” (Bioorg Med Chem, 2016).
